Measured values: EP1600504A1, “Control of transglutaminase catalyzed protein modification by selective irreversible transglutaminase inhibitors” (N-Zyme BioTec GmbH, priority 2004, dated 2005)
Blank lines part the entries; values can stand above or below the compound they belong to. Peptide text beside a SMILES is read from it. * marks the point of attachment. Cbz = O=C(OCc1ccccc1)*; Acryloyl = C=CC(=O)*; ClAc = O=C(CCl)*

What was measured:
[1] = tested on: Transglutaminase; assay: Transglutaminase-catalysed labelling reaction stopped by inhibitor, SDS-PAGE fluorescence (Beispiel 1); assay type: biochemical; conditions: Zielprotein N,N-Dimethylcasein, stopped after 2, 10 and 20 min, large excess of unbound dye present, transglutaminase only given in an image table
Protocol: (§1) Alle nachfolgend beschriebenen Experimente wurden nach dem gleichen Standardprotokoll durchgeführt. Dabei werden das jeweilige Zielprotein und das farbstofftragende amin- oder glutaminhaltige Substrat in einem geeigneten Puffer vorgelegt und für 5 Min. auf 37°C temperiert. Anschließend wird durch Zugabe von Transglutaminase die Reaktion gestartet. Nach variierenden Inkubationszeiten, durch die jeweils verschiedene Markierungsgrade erreicht werden, wird durch Zugabe eines Inhibitors die Transglutaminase vollständig und irreversibel inaktiviert (Reaktionsabbruch 1). In Kontrollexperimenten wird die Markierungsreaktion durch Abtrennung des ungebundenen, farbstofftragenden Substrates unterbrochen (Reaktionsabbruch 2). Die Abtrennung des ungebundenen Farbstoffes erfolgt unter Normaldruck über eine PD-10-Säule (Amersham Biosciences). Dieses allgemein einsetzbare Verfahren zur schnellen Abtrennung kleiner Moleküle von Makromolekülen wie Proteinen basiert auf dem Prinzip der Gelpermeationschromatographie und kann als das vorteilhafteste Verfahren zur Reaktionskontrolle nach dem Stand der Technik angesehen werden. Andere Verfahren, mit denen die weitere katalytische Markierungsreaktion abgebrochen werden könnte, sind weniger geeignet oder nicht allgemein einsetzbar (z. B. thermische, unspezifische chemische oder affinitätschromatographische Methoden). […]

[2] = tested on: Transglutaminase; assay: Transglutaminase-catalysed labelling reaction stopped by inhibitor, SDS-PAGE fluorescence (Beispiel 3); assay type: biochemical
Protocol: as §1

[3] = biological target: T1, bakterielle Transglutaminase (Streptomyces mobaraensis, UniProt P81453); assay: Labelling of recombinant hIRS1-p30-N-K stopped by inhibitor, SDS-PAGE fluorescence (Beispiel 6); assay type: biochemical
T1 sequence (P81453 77-407): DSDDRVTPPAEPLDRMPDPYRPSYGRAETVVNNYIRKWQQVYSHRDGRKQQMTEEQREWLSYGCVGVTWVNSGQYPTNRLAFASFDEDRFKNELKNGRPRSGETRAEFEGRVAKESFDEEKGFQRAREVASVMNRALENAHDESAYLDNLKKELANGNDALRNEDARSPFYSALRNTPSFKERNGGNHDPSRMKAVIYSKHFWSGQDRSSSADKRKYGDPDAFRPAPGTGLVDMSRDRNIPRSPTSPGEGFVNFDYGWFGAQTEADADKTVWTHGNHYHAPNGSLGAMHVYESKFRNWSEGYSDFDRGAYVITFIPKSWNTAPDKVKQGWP
Protocol: as §1

[4] = biological target: T2, Meerschweinchenlebertransglutaminase (Cavia cutleri, UniProt P08587); assay: Labelling of recombinant hLeptin stopped by inhibitor, RP-HPLC (Beispiel 7); assay type: biochemical, Meerschweinchen
T2 sequence (P08587 2-690 limits assumed): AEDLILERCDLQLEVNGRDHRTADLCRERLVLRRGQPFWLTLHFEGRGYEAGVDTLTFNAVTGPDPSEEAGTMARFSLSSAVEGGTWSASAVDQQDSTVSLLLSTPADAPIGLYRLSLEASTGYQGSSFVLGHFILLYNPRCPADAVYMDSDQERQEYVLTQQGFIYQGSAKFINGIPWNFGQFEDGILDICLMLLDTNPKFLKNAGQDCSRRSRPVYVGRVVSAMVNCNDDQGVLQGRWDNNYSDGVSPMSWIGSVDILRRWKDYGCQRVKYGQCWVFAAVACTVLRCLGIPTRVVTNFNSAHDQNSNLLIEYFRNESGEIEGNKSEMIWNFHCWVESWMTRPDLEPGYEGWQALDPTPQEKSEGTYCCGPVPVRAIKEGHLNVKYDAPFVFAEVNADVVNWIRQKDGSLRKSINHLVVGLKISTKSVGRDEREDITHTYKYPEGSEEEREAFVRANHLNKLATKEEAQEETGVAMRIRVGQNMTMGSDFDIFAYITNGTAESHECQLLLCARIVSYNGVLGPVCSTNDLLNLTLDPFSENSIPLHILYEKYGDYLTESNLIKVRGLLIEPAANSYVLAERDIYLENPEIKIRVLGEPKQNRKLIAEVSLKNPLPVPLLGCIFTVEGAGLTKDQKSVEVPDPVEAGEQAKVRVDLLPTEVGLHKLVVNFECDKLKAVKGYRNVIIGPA
Protocol: as §1, with “Methoden). Die Gelpermeationschromatographie wurde jeweils so schnell wie technisch machbar durchgeführt. Dazu wird auf die vorkonditionierte PD-10-Säule 2,5 ml des Reaktionsvolumens aufgetragen und die Lösung vollständig in das Trennmaterial eingebracht. Anschließend wird das Protein mit 3,5 ml Puffer eluiert. Die niedermolekularen Substanzen verbleiben auf der Säule. Der Gesamtprozess benötigt eine Zeitspanne von mindestens 3 Minuten. Während dieser Zeit kann Transglutaminase weiter auf das Zielprotein einwirken.” for “Methoden).”

[5] = biological target: T1, bakterielle Transglutaminase; assay: Labelling of recombinant Concanavalin A stopped by inhibitor, SDS-PAGE fluorescence (Beispiel 4); assay type: biochemical; conditions: rekombinantes Concanavalin A, stopped after 2 and 5 min, then 30 min RT
Protocol: as §1

[6] = tested on: Transglutaminase; assay: Transglutaminase-catalysed labelling reaction stopped by inhibitor, SDS-PAGE fluorescence (Beispiel 5); assay type: biochemical; conditions: stopped after 2, 5 and 10 min, then 30 min RT
Protocol: as §1

SMILES: CC[C@H](C)[C@H](NC(=O)[C@H](CCC(N)=O)NC(=O)[C@H](CCC(=O)C[S+](C)C)NC(=O)OC(C)(C)C)C(=O)N[C@H](C(=O)OC)C(C)C [Boc-SON-Gln-Ile-Val-OH, N^α-tert.-Butyloxycarbonyl-L-(6-dimethylsulfonium-5-oxonorleucinyl)-L-glutaminyl-L-isoleucinyl-L-valinmethylester]
weitere katalytische Reaktion nach Zugabe des Inhibitors [1]: Eine weitere katalytische Reaktion findet nach Zugabe des Inhibitors nicht statt

weiteres Labeling des Zielproteins nach Abtrennung des Inhibitors ([2]; inhibitor removed by gel permeation chromatography, fresh unbound dye added, 30 min RT): kein weiteres Labeling des Zielproteins
Markierungsreaktion nach Zugabe des Inhibitors ([2]; stopped after 5 min, sample directly after inhibitor addition): wird die Reaktion gestoppt
SMILES: [N-]=[N+]=CC(=O)CC[C@H](NC(=O)OCc1ccccc1)C(=O)NCC(=O)O [Z-DON-Gly-OH, N^α-Benzyloxycarbonyl-L-(6-diazo-5-oxonorleucinyl)glycin]

SMILES: COC(=O)[C@H](Cc1ccccc1)NC(=O)[C@H](CCC(=O)C=[N+]=[N-])NC(=O)OCc1ccccc1 [Z-DON-Phe-OMe, N^α-Benzyloxycarbonyl-L-(6-diazo-5-oxonorleucinyl)-L-phenylalaninmethylester]
weitere Modifikation des Zielproteins nach Abtrennung von Farbstoff und Inhibitor ([3]; dye and inhibitor removed, kept at RT 30 min, 1 h, 2 h, 4 h): keine weitere Modifikation des Zielproteins
Inhibition der Transglutaminase ([3]; stopped after 5 min): vollständige und irreversible Inhibition der Transglutaminase

SMILES: C=CC(=O)NCCCC[C@H](NC(=O)OCc1ccccc1)C(=O)NCC(=O)O [Z-Lys(Acryloylamid)-Gly-OH, N^α-Benzyloxycarbonyl-L-lysinyl(ε-acryloyl)glycin] (Cbz-Lys(Acryloyl)-Gly-OH)
Inaktivierung der Meerschweinchenlebertransglutaminase ([4]; stopped after 5 min): inaktiviert Meerschweinchenlebertransglutaminase vollständig
weitere Labeling- und Quervernetzungsreaktionen ([4]; stopped after 5 min, then 30 and 60 min RT): keine weitere Labeling- und Quervernetzungsreaktionen
weitere enzymatische Reaktionen nach Lagerung ([4]; storage 10 days at -20°C, then one hour RT): keine weiteren enzymatischen Reaktionen mehr

weitere Markierungsreaktion nach Inhibitorzugabe [5]: keine weitere Markierungsreaktion mehr
SMILES: COC(=O)[C@H](Cc1ccccc1)NC(=O)[C@H](CCC(=O)C[S+](C)C)NC(=O)OCc1ccccc1 [Z-SON-Phe-OMe, Nα-Benzyloxycarbonyl-L-(6-dimethylsulfonium-5-oxonorleucinyl)phenylalaninmethylester]

SMILES: O=C(O)CNC(=O)[C@H](COC(=O)CCl)NC(=O)OCc1ccccc1 [Z-Ser(OAcCl)-Gly-OH, N^α-Benzyloxycarbonyl-L-serinyl(O-chloracetyl)glycin] (Cbz-Ser(ClAc)-Gly-OH)
weitere Markierungsreaktionen nach Inhibitorzugabe [6]: keine weiteren Markierungsreaktionen mehr
